18 molecules from ChEMBL document CHEMBL5291721, “A preclinical secondary pharmacology resource illuminates target-adverse drug reaction associations of marketed drugs” (Nat Commun, 2023) can be followed below.

Targets include Mu-type opioid receptor (Homo sapiens, UniProt P35372); Melanocortin receptor 4 (Homo sapiens, UniProt P32245); Cannabinoid receptor 1 (Homo sapiens, UniProt P21554).
The target of assay [1] is T1, Cholecystokinin receptor type A (Homo sapiens, UniProt P32238).
T1 sequence (P32238 whole entry): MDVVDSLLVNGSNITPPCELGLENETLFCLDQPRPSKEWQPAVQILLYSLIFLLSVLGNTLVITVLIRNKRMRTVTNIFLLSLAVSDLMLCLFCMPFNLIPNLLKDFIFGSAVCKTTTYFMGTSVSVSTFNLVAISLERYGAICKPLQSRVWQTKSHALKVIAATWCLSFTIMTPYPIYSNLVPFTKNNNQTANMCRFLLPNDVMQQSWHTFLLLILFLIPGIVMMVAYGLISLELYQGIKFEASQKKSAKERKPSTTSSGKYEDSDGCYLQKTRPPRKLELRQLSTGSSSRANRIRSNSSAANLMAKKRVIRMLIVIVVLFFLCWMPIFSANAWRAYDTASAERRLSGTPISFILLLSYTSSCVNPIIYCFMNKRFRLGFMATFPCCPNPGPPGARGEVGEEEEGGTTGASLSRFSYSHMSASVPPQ

Assay [2] concerns the target T2, Alpha-1A adrenergic receptor (Homo sapiens, UniProt P35348).
T2 sequence (P35348 whole entry): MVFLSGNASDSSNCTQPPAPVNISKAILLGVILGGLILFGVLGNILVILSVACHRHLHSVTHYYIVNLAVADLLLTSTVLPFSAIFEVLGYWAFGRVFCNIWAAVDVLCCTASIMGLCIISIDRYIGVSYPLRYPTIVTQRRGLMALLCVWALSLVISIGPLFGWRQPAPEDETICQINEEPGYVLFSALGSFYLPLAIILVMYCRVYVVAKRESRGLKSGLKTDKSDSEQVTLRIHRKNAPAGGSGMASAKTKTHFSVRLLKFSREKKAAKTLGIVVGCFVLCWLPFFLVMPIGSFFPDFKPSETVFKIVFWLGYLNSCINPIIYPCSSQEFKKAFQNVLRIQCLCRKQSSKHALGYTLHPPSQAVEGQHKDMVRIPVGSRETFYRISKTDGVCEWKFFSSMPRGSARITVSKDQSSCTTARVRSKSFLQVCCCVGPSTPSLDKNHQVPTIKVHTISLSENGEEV
Type of assay: functional, cell-based.

Assay [3] concerns the target 3',5'-cyclic-AMP phosphodiesterase 4D (Homo sapiens, UniProt Q08499). The format is functional.
Assay [4] has as its target T2, Alpha-1A adrenergic receptor.
The target of the next assay is Histamine H2 receptor (Homo sapiens, UniProt P25021). The format is functional, cell-based.
Histamine H2 receptor, sequence (P25021 whole entry): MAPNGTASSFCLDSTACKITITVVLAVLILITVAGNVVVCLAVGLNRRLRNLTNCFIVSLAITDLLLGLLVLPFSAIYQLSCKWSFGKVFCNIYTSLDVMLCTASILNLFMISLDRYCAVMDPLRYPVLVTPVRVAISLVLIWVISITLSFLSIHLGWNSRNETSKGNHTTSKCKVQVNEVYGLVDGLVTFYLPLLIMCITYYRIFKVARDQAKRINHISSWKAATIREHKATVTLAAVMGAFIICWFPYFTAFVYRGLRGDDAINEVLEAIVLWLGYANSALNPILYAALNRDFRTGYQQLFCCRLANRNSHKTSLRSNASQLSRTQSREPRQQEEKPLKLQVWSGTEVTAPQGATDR
A further assay addresses T3, Thromboxane A2 receptor (Homo sapiens, UniProt P21731).
T3 sequence (P21731 whole entry): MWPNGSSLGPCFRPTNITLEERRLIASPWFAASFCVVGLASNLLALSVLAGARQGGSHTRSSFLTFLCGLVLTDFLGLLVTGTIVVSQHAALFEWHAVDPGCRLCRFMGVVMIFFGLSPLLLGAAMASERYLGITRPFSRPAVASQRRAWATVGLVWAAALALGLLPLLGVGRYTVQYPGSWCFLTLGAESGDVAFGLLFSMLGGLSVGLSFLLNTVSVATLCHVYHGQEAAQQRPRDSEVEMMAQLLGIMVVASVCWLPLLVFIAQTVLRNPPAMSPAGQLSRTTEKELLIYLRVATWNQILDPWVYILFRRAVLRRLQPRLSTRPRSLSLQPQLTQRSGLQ

The target of assay [5] is T4, 5-hydroxytryptamine receptor 3A (Homo sapiens, UniProt P46098).
T4 sequence (P46098 whole entry): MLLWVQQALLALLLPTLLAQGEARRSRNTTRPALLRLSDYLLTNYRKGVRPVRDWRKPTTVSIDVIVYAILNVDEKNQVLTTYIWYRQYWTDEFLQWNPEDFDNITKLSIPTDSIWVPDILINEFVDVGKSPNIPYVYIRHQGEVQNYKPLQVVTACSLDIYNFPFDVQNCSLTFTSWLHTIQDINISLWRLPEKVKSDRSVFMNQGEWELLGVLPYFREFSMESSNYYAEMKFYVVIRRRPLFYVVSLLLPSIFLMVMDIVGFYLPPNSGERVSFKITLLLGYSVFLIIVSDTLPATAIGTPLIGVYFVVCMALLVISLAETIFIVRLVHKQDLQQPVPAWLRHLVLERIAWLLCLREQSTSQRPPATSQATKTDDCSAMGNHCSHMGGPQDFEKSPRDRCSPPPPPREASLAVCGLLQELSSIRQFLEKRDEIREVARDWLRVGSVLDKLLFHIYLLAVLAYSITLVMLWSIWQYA
Type of assay: functional.

Assay [6] concerns the target Sodium-dependent serotonin transporter (Homo sapiens, UniProt P31645).

Where only a bound is given, the exact number is not on record here.
Also: assay procedure not described here.

3',5'-cyclic-AMP phosphodiesterase 4D, sequence (Q08499 whole entry): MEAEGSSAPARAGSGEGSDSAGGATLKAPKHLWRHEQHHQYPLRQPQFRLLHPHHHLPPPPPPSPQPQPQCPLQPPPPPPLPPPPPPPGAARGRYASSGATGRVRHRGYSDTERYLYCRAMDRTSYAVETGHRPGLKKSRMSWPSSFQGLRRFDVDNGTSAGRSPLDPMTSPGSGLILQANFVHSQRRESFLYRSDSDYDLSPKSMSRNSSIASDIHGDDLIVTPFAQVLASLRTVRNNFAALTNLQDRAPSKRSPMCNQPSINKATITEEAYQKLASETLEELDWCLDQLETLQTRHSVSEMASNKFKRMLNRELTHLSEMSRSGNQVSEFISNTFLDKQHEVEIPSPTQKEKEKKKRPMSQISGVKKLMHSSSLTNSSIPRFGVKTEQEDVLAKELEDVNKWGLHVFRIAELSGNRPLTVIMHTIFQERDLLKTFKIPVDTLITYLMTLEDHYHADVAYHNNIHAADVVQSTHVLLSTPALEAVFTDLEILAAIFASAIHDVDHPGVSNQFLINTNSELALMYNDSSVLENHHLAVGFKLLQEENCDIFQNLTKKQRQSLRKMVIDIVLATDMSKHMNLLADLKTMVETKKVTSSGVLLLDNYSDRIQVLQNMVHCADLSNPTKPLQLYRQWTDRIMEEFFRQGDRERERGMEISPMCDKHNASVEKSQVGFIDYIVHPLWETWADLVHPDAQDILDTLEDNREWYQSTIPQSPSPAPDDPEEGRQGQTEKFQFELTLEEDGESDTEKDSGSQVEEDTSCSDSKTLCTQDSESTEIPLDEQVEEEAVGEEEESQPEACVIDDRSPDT
Mu-type opioid receptor, sequence (P35372 whole entry): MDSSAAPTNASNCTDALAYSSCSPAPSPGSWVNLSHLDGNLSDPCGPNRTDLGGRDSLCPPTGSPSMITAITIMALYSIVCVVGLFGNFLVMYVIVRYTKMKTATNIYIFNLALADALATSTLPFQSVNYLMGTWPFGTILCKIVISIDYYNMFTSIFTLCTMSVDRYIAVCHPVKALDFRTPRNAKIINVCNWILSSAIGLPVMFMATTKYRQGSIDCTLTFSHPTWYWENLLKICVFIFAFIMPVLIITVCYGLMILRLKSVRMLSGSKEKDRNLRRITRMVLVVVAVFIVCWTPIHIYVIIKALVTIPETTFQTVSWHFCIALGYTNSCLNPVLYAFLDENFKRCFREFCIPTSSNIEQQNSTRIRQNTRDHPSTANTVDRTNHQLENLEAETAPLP
Melanocortin receptor 4, sequence (P32245 whole entry): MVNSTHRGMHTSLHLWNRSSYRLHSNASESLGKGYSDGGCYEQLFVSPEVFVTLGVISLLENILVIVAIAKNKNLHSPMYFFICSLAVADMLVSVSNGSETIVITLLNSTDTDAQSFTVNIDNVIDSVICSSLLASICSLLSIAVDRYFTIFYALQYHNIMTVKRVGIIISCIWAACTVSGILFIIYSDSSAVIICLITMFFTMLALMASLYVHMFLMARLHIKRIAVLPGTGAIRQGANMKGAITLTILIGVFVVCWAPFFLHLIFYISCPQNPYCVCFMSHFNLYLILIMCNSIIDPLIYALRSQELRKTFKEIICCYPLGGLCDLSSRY
Sodium-dependent serotonin transporter, sequence (P31645 whole entry): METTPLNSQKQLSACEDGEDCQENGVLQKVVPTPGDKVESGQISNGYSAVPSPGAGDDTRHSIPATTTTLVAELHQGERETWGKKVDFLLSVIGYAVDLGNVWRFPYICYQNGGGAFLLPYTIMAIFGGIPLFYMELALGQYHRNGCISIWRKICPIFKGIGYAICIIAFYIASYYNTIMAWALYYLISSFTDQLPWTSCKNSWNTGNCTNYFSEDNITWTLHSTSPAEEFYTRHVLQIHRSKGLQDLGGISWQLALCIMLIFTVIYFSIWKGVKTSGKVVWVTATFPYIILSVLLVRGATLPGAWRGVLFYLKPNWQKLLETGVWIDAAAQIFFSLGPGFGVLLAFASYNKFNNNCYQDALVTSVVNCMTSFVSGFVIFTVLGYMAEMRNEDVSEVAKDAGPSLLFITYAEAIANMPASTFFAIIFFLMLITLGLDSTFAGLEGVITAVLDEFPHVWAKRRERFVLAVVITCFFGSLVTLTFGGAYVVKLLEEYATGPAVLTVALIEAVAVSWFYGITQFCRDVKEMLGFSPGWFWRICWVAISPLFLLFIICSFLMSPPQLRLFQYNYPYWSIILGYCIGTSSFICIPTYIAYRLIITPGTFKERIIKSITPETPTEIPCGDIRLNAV
Cannabinoid receptor 1, sequence (P21554 whole entry): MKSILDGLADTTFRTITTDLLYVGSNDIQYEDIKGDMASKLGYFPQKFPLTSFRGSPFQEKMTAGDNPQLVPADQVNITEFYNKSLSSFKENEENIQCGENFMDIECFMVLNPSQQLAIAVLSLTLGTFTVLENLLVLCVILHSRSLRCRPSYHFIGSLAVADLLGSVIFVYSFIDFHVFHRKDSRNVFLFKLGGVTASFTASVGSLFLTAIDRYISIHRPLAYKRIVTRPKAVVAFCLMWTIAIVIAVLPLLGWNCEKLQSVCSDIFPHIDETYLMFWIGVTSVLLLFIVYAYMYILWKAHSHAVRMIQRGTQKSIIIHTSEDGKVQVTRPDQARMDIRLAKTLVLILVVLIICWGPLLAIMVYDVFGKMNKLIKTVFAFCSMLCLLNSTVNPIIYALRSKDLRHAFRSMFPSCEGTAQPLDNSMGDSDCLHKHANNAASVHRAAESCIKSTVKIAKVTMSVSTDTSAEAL

Turning to `CNS(=O)(=O)Cc1ccc2[nH]cc(CCN(C)C)c2c1`, the AC50 in assay [1] was over 30 µM; at Mu-type opioid receptor, over 10 µM; in [2], over 30 µM; in assay [3] it was over 30 µM; in assay [4] it was over 30 µM; on Histamine H2 receptor, over 30 µM. The AC50 at Melanocortin receptor 4 and at Thromboxane A2 receptor was over 30 µM in each case.

Consider `COc1ccccc1N1CCN(CCCNc2cc(=O)n(C)c(=O)n2C)CC1`, for which the AC50 in assay [1] is over 30 µM; in assay [5] it was over 30 µM; in assay [2], 0.57 µM; in assay [6], 9.5 µM; in assay [3], over 10 µM; in assay [4], 0.0043 µM. Also, the AC50 at Histamine H2 receptor and on Thromboxane A2 receptor was over 30 µM each time.

As to `CC(=O)O[C@H]1CC[C@@]2(C)C(=CC[C@@H]3[C@@H]2CC[C@]2(C)C(c4cccnc4)=CC[C@@H]32)C1` [ABIRATERONE ACETATE], the AC50 (in [1]; in assay [5]; at Mu-type opioid receptor; in [2]; in assay [6]; in assay [3]) was over 30 µM each time. In addition, the AC50 in assay [4] was over 10 µM; at Histamine H2 receptor it was over 30 µM; at Thromboxane A2 receptor, over 30 µM.

On to `NCC(=O)CCC(=O)O` [AMINOLEVULINIC ACID], for which the AC50 (in assay [1]; in assay [5]; on Mu-type opioid receptor; in assay [2]; in assay [6]; in assay [3]) was over 30 µM each time. The AC50 at Histamine H2 receptor and on Thromboxane A2 receptor was over 30 µM in each case.

On to `COc1ccccc1OCCNCC(O)c1ccc(C)c(S(N)(=O)=O)c1` (centres undefined) [AMOSULALOL], for which the AC50 in assay [1] was over 30 µM; in assay [5] it was over 30 µM; in assay [2], 0.24 µM; in [6] it was 29 µM; in assay [3], 6.7 µM; in [4], 0.3 µM. Besides, the AC50 on Histamine H2 receptor and on Thromboxane A2 receptor was over 30 µM each time.

Take `COC(=O)C1=C(C)NC(C)=C(C(=O)OC2CCCN(Cc3ccccc3)C2)C1c1cccc([N+](=O)[O-])c1` (centres undefined) [BENIDIPINE]: the AC50 in assay [1] is over 30 µM; in assay [5], over 30 µM; in assay [6] it was over 30 µM; in [3], 7.1 µM; in assay [4], 3 µM; on Histamine H2 receptor, over 30 µM. The same molecule returned an AC50 at Thromboxane A2 receptor of over 30 µM.

As for `CC(C)=CCC/C(C)=C/C=C/C(C)=C/C=C/C(C)=C/C=C/C=C(C)/C=C/C=C(C)/C=C/C=C(\C)CCC=C(C)C` [LYCOPENE], the AC50 (in [1]; on Cannabinoid receptor 1; in assay [5]; in assay [2]; in assay [6]; in assay [3]) was over 30 µM in each case. Also, the AC50 on Histamine H2 receptor and at Thromboxane A2 receptor was over 30 µM in each case.

On to `CCOC(=O)[N-]c1cn(N2CCOCC2)n[o+]1` [MOLSIDOMINE], for which the AC50 (in assay [1]; in [5]; in assay [2]; in [6]; in assay [3]; at Histamine H2 receptor) was over 30 µM throughout. On Thromboxane A2 receptor, this molecule came in with an AC50 of over 30 µM.

For the molecule `OC(CNCC(O)C1CCc2cc(F)ccc2O1)C1CCc2cc(F)ccc2O1` (centres undefined) [NEBIVOLOL], the AC50 in assay [1] was over 30 µM; in assay [5] it was over 30 µM; in assay [2] it was 3.1 µM; in assay [6] it was 0.75 µM; in [3] it was over 30 µM; on Histamine H2 receptor, over 30 µM. In addition, the AC50 at Thromboxane A2 receptor was over 30 µM.

`CCCc1nc(C(C)(C)O)c(C(=O)OCc2oc(=O)oc2C)n1Cc1ccc(-c2ccccc2-c2nnn[nH]2)cc1` [OLMESARTAN MEDOXOMIL]: the AC50 in [1] was over 50 µM; in assay [5] it was over 10 µM; at Mu-type opioid receptor it was over 10 µM; in assay [2] it was over 30 µM; in assay [6] it was over 30 µM; in assay [3], 3.9 µM. The AC50 was over 10 µM in assay [4], over 10 µM at Histamine H2 receptor, over 50 µM on Melanocortin receptor 4 and over 50 µM at Thromboxane A2 receptor.

For `COc1ccc2c3c1O[C@H]1C(=O)CC[C@@]4(O)[C@@H](C2)N(C)CC[C@]314` [OXYCODONE], the AC50 (in assay [1]; in assay [5]; in assay [2]; in assay [6]; in [3]; at Histamine H2 receptor) was over 30 µM each time. Moreover, on Thromboxane A2 receptor, the AC50 was over 30 µM.

With `Clc1ccc(CCCOCCCN2CCCCC2)cc1` [PITOLISANT], the AC50 was over 30 µM in [1]; over 30 µM in [5]; over 30 µM in assay [2]; 9.9 µM in assay [6]; over 30 µM in [3]; over 30 µM on Histamine H2 receptor. Moreover, the AC50 at Thromboxane A2 receptor was over 30 µM.

In the case of `Cc1ccc(-n2nccn2)c(C(=O)N2CCN(c3nc4cc(Cl)ccc4o3)CC[C@H]2C)c1` [SUVOREXANT], the AC50 (in [1]; in assay [5]; in assay [2]; in assay [6]; in [3]; on Histamine H2 receptor) was over 30 µM throughout. For the same molecule, the AC50 on Thromboxane A2 receptor was over 10 µM.

`C/C(O)=C(\C#N)C(=O)Nc1ccc(C(F)(F)F)cc1` [TERIFLUNOMIDE]: the AC50 in [1] is over 30 µM; in assay [5], over 30 µM; at Mu-type opioid receptor, over 30 µM; in [2], 21 µM; in [6], over 30 µM; in assay [3], over 30 µM.

Regarding `CC(CC(c1ccccc1)c1ccccc1)NC(C)(C)C` (centres undefined) [TERODILINE], the AC50 is over 30 µM in assay [1]; over 30 µM in assay [5]; 12 µM in assay [2]; over 30 µM in [6]; over 30 µM in [3]; over 30 µM on Histamine H2 receptor. The AC50 on Thromboxane A2 receptor is over 30 µM.

Consider `CN1CCN(CC/C=C2/c3ccccc3Sc3ccc(S(=O)(=O)N(C)C)cc32)CC1` [THIOTHIXENE], for which the AC50 in assay [1] was over 30 µM; in assay [5] it was 1.6 µM; on Mu-type opioid receptor, over 10 µM; in [2], 0.31 µM; in assay [6], over 10 µM; in [3], 4.1 µM. The AC50 in assay [4] was 0.0244 µM; at Histamine H2 receptor it was over 10 µM; on Melanocortin receptor 4, over 30 µM; on Thromboxane A2 receptor it was over 30 µM.

As to `COc1cc2c(N)nc(N3CCN(C(=O)OCC(C)(C)O)CC3)nc2c(OC)c1OC` [TRIMAZOSIN], the AC50 in assay [1] is over 30 µM; in assay [5], over 30 µM; in assay [2], 1.2 µM; in [6], over 30 µM; in assay [3] it was over 30 µM; in assay [4], 1.8 µM. Besides, the AC50 at Histamine H2 receptor and on Thromboxane A2 receptor was over 30 µM throughout.

As to `C=CCN1CCCC1CNC(=O)c1cc(S(N)(=O)=O)cc(OC)c1OC` (centres undefined) [VERALIPRIDE], the AC50 in assay [1] was over 30 µM; in assay [5], over 30 µM; in assay [2], over 30 µM; in assay [6] it was 25 µM; in [3], over 30 µM; on Histamine H2 receptor, over 30 µM. In addition, the AC50 at Thromboxane A2 receptor is over 30 µM.

One may read the AC50 as the concentration giving half of the maximal activity seen. Low readings indicate activity at low concentration, high ones activity only at high concentration.
